Among the data in US11028075B2, “Therapeutic compounds and methods of use thereof” (GENENTECH, INC., priority 2018, dated 2021) are IC50 values, retold here.

Structures are written as SMILES. Where a name gives a salt, the structure may show the parent alone.

What is called IC50 is the point on the concentration scale where inhibition reaches its midpoint.

Test [1] deals with T1, hNav1.7 (Homo sapiens (Human), UniProt Q15858). The test is described as follows: Tritiated compound binding to membranes from cells heterologously expressing hNav1.7 and the β1 subunit (Nav1.7 LBA). The following applies: competitive binding vs [3H]compound, membranes with hNav1.7 and β1 subunit; read-out: Nav1.7 LBA EVO IC50. On the procedure:
Example 93A. Tritiated Compound Binding to Membranes Isolated from Cells that Heterologously Express hNav1.7 and the β1 Subunit
Preparation of membranes containing recombinantly expressed sodium channels: Frozen recombinant cell pellets are thawed on ice and diluted to 4 times the cell pellet weight with ice cold 50 mM Tris HCl, pH 7.4 buffer. The cell suspensions are homogenized on ice using a motorized glass dounce homogeniser. Homogenates are further diluted 8.4 times with ice cold 50 mM Tris HCl, pH 7.4 buffer and then centrifuged at 200×g at 4° C. for 15 minutes. The supernatants are collected and centrifuged at 10000×g at 4° C. for 50 min. The pellets are then re-suspended in 100 mM NaCl, 20 mM Tris HCl, pH 7.4 buffer containing 1% v/v protease inhibitors (Calbiochem) and re-homogenized on ice. The homogenized membranes are then processed through a syringe equipped with a 26 gauge needle. Protein concentrations arer determined by Bradford Assay and the membranes are stored at −80° C.
Saturation experiments. A competitive NaV1.7 inhibitor having a methyl group is tritiated. Three tritiums are incorporated in place of methyl hydrogens to generate [^3H]compound. Binding of this radioligand is performed in 5 mL borosilicate glass test tubes at room temperature. Binding is initiated by adding membranes to increasing concentrations of [^3H]compound in 100 mM NaCl, 20 mM Tris HCl, pH 7.4 buffer containing 0.01% w/v bovine serum albumin (BSA) for 18 h. Non-specific binding is determined in the presence of 1 μM unlabeled compound. After 18 h, the reactants are filtered through GF/C glass fiber filters presoaked in 0.5% w/v polyethylene imine. Filters are washed with 15 mL ice cold 100 mM NaCl, 20 mM Tris HCl, pH7.4 buffer containing 0.25% BSA to separate bound from free ligand. [^3H]compound bound to filters is quantified by liquid scintillation counting.
Binding reactions are performed in 96-well polypropylene plates at room temperature for 18 h. In 360 μL, membranes are incubated with […] [^3H]compound and increasing concentrations of Test Compound. Non-specific binding is defined in the presence of 1 μM unlabeled compound. Reactions are transferred and filtered through 96-well glass fiber/C filter plates presoaked with 0.5% polyethylene imine. The filtered reactions are washed 5 times with 200 μL ice cold buffer containing 0.25% BSA. Bound radioactivity is determined by liquid scintillation counting.
Data Analysis: For saturation experiments, non-specific binding is subtracted from total binding to provide specific binding and these values are recalculated in terms of pmol ligand bound per mg protein. Saturation curves are constructed and dissociation constants are calculated using the single site ligand binding model: Beq=(Bmax*X)/(X+Kd), where Beq is the amount of ligand bound at equilibrium, Bmax is the maximum receptor density, Kd is the dissociation constant for the ligand, and X is the free ligand concentration. For competition studies percent inhibition is determined and IC50 values are calculated using a 4 parameter logistic model (% inhibition=(A+((B−A)/(1+((x/C)^D)))) using XLfit, where A and B are the maximal and minimum inhibition respectively, C is the IC50 concentration and D is the (Hill) slope.
Example 93B. Tritiated Compound Binding to Membranes Isolated from Cells that Heterologous Express hNav1.7 and the β1 Subunit
Following the procedure described in Example 93A, and making modifications as required to: centrifuge supernatants at 100000×g instead of 10000×g; re-suspend pellets in a buffer containing 0.01% BSA in addition to 100 mM NaCl, 20 mM Tris HCl, pH 7.4 buffer, and 1% v/v proteasome inhibitors; and storing membranes at −80° C. in single use aliquots instead of pooled. […]
Target sequence in this assay (Q15858 whole entry, looked up): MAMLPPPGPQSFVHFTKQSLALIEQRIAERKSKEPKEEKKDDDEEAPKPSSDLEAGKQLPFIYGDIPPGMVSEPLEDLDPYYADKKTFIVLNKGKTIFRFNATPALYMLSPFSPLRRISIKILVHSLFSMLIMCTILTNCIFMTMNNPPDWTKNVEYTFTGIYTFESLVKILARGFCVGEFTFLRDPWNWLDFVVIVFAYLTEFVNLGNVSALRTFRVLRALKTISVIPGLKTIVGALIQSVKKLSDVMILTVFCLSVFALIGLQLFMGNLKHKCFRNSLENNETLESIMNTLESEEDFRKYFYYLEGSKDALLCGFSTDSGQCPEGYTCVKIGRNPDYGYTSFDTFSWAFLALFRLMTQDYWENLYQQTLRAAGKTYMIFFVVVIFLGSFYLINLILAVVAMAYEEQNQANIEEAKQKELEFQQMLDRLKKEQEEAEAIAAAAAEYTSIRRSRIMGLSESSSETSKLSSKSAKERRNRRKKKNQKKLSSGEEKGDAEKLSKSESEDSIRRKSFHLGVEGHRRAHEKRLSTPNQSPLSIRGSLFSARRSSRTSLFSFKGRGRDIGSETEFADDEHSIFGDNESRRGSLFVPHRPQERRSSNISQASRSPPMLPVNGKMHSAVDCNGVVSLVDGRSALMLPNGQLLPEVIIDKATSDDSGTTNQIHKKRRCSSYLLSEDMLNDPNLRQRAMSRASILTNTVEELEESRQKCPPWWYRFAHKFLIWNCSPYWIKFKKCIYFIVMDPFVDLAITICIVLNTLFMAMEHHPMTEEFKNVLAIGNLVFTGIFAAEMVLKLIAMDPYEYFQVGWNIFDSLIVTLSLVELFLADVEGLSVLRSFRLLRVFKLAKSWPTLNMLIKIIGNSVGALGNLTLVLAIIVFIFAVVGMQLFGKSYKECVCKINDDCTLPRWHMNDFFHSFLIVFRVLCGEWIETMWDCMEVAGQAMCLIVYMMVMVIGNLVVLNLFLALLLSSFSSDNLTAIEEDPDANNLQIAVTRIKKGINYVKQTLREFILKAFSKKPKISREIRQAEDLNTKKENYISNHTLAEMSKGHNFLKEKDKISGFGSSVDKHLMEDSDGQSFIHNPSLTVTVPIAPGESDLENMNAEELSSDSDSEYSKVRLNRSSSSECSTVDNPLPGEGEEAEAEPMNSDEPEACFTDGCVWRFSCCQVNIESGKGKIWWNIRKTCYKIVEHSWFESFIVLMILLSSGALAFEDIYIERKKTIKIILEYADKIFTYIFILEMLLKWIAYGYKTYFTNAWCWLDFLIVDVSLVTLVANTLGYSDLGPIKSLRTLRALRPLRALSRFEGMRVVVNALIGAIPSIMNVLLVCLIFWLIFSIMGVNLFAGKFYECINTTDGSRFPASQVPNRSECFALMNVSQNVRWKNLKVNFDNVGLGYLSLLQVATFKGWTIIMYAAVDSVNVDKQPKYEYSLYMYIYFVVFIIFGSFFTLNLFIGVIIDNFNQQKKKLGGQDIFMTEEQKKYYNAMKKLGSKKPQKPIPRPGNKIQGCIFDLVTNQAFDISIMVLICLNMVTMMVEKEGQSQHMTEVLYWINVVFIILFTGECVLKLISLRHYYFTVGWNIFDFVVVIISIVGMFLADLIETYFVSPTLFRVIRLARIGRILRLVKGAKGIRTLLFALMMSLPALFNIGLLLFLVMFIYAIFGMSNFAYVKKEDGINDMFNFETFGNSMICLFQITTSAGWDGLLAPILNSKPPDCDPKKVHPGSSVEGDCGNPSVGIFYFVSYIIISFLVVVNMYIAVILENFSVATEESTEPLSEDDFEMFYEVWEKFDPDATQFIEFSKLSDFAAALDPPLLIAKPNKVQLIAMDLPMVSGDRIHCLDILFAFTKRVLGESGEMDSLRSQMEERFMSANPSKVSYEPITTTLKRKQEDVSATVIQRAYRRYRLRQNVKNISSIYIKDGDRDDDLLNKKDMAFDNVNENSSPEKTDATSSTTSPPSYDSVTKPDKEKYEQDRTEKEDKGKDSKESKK
Target sequence in this assay (Q07699 whole entry partner, looked up): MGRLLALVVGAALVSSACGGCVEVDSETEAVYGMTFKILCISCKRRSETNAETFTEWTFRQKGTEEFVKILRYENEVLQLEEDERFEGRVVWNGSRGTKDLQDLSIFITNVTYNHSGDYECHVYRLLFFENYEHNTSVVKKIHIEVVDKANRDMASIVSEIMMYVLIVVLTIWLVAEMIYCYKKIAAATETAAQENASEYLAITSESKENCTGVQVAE

In test [2] the target is T1, hNav1.7. Briefly: Electrophysiological assay (EP), voltage clamp on Syncropatch 384PE, CHO cells stably expressing Nav1.7. Format: cell-based. The following applies: holding potential −50 mV, 7.5 min compound incubation, read-out: EP_SP hNav1.7 EVO IC50. The source says: Example 93C. Electrophysiological Assay (EP) (In Vitro Assay)
Patch voltage clamp electrophysiology allows for the direct measurement and quantification of block of voltage-gated sodium channels (NaV's), and allows the determination of the time- and voltage-dependence of block which has been interpreted as differential binding to the resting, open, and inactivated states of the sodium channel (Hille, B., Journal of General Physiology (1977), 69: 497-515).
The following voltage clamp electrophysiology studies are performed on representative compounds using cells heterologously expressing Nav1.7 or Nav1.5 channels. cDNAsfor Nav1.7 (NM_002977) and Nav1.5 (AC137587) are stably expressed in Chinese Hamstr Ovary (CHO) cells and CHL (Chinese Hamster Lung) cells respectively. Sodium currents are measured in the whole-cell configuration using Syncropatch 384PE (Nanlon Technologies, Germany). 1NPC®-384 chips with custom medium resistance and single hole mode are used. Internal solution consists of (in mM): […], 10 […], 20 EGTA, and 10 Hepes (pH adjusted to 7.2); and external solution contains (in mM): 60 NMDG, 80 NaCl, 4 KCl, 1 MgCl2, 2 CaCl2, 2 D-Glucose monohydrate, 10 Hepes (pH adjusted to 7.4 with NaOH).
After system flushing, testing compounds are dissolved in external solution containing 0.1% Pluronic F-127. The chip is moved into the measuring head and the instrument primes the chip with external and internal solutions. 10 μl cells are added to the chip from a cell hotel, and a negative pressure of −50 mBar is applied to form a seal. Following treatment with seal enhancer solution and wash-off with external solution, negative pressure of −250 mbar is applied for 1 second to achieve the whole-cell configuration, followed by three washing steps in external solution. 20 μl of compounds is added to 40 μl in each well (1:3 dilution of compounds), and after mixing, 20 μl is removed so the volume is retained at 40 μl. After approximately 13 minutes recordings, 20 μl/well of 2 uM TTX, or 333 uM Tetracaine (for Nav1.5) is added to achieve full block.
For voltage protocol, an holding potential of −50 mV is applied during the whole experiment. A depolarizing step is applied to −10 mV for 10 ms, followed by a hyperpolarization step to −150 mV for 20 ms to allow channel recovery from inactivation. A second depolarizing step is applied from −150 mV to −10 mV for 10 ms, where currents are measured to derive blocking effects of compounds. Inhibition is determined based on 7.5 min of compound incubation.
Target sequence in this assay (Q15858 other isoform, or with tags, fused parts or gaps): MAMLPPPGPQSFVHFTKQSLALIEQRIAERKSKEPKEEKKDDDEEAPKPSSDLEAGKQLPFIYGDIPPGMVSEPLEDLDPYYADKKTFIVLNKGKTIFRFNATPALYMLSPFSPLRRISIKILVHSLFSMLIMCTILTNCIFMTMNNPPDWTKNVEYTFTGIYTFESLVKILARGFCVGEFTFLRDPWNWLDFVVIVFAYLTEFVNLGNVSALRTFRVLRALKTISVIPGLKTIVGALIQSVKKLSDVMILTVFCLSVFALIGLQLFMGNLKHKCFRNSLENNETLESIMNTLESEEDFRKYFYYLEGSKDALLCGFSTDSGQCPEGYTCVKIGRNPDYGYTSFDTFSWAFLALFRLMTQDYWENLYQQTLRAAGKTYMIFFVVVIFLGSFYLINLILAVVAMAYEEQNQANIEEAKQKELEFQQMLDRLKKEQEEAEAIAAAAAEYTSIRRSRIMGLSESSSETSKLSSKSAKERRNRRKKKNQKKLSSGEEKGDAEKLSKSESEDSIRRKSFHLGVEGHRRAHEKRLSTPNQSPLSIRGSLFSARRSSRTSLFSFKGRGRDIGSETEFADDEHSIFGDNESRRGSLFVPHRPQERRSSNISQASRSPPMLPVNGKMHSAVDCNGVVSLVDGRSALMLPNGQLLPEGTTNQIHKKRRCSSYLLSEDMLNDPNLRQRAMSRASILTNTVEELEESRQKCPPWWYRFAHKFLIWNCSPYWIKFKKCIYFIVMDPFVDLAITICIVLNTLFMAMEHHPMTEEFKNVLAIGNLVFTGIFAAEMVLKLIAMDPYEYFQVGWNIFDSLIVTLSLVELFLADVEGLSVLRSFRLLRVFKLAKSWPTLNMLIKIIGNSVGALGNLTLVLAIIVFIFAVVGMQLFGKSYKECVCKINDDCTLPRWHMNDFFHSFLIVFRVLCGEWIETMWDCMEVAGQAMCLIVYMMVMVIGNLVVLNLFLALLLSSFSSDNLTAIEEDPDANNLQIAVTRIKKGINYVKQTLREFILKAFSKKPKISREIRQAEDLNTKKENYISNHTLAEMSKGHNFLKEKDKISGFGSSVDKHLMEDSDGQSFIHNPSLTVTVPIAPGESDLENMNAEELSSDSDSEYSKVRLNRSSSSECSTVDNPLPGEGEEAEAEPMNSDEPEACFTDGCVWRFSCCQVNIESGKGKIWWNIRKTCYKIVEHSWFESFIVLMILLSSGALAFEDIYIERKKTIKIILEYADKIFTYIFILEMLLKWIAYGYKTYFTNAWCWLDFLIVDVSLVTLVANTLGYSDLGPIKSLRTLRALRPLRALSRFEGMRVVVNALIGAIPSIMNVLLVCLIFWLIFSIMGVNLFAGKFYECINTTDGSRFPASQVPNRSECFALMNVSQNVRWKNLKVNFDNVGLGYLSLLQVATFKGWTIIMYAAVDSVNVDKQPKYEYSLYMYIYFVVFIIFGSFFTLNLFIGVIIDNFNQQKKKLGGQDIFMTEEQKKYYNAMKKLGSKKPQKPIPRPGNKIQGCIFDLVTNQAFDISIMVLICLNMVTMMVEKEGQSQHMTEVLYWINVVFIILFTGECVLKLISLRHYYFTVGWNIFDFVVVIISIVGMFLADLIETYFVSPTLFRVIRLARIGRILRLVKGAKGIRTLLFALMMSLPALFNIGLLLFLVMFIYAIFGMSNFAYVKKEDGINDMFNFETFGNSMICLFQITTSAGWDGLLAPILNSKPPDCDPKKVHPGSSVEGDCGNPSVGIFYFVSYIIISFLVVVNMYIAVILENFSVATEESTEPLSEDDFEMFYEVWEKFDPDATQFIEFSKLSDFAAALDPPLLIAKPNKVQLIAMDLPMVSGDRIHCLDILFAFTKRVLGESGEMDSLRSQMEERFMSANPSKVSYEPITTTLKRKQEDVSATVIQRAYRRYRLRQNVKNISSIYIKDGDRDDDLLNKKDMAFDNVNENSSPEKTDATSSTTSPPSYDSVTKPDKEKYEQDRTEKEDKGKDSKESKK
Background: Patch clamp records ionic current or voltage across a cell membrane.

On to `CN(C)[C@H]1C[C@@H](c2cccc(-c3ccnn3C)c2)CC[C@@H]1Nc1cc(F)c(S(=O)(=O)Nc2ccncn2)cc1Cl` [Example 21, 5-Chloro-4-(((1S,2S,4S)-2-(dimethylamino)-4-(3-(1-methyl-1H-pyrazol-5-yl)phenyl)-cyclohexyl)amino)-2-fluoro-N-(pyrimidin-4-yl)benzenesulfonamide], for which the IC50 at hNav1.7 [1] stood at 12.9 nM; at hNav1.7 [2] it was 8.03 nM.

With `CN(C)[C@H]1C[C@@H](c2cccc(-c3cnn(C)c3)c2)CC[C@@H]1Nc1cc(F)c(S(=O)(=O)Nc2ccncn2)cc1Cl` [Example 22], the values for the IC50 on hNav1.7 [1] and on hNav1.7 [2] were 21.2 nM and 19.4 nM, respectively.

With `O=S(=O)(Nc1ccncn1)c1cc(F)c(N[C@H]2CC[C@H](c3cccc(C(F)(F)F)c3)C[C@@H]2N2CCCC2)cc1F` [Example 23, 2,5-difluoro-N-(pyrimidin-4-yl)-4-(((1S,2S,4S)-2-(pyrrolidin-1-yl)-4-(3-(trifluoromethyl)-phenyl)cyclohexyl)amino)benzenesulfonamide formate], the IC50 on hNav1.7 [1] was found to be 1.21 nM; at hNav1.7 [2], 1.63 nM.

Turning to `CN(C)[C@H]1C[C@@H](c2cc(Cl)cc(C(F)(F)F)c2)CC[C@@H]1Nc1cc(F)c(S(=O)(=O)Nc2ccncn2)cc1Cl` [Example 24, 5-chloro-4-(((1S,2S,4S)-4-(3-chloro-5-(trifluoromethyl)phenyl)-2-(dimethylamino)cyclohexyl)-amino)-2-fluoro-N-(pyrimidin-4-yl)benzenesulfonamide], the IC50 was found to be 0.583 nM at hNav1.7 [1] and 0.383 nM on hNav1.7 [2].

As for `CN(C)[C@H]1C[C@@H](c2cc(F)cc(Cl)c2)CC[C@@H]1Nc1cc(F)c(S(=O)(=O)Nc2ccncn2)cc1Cl` [Example 25, 5-chloro-4-(((1S,2S,4S)-4-(3-chloro-5-fluorophenyl)-2-(dimethylamino)cyclohexyl)amino)-2-fluoro-N-(pyrimidin-4-yl)benzenesulfonamide], the IC50 on hNav1.7 [1] turned out to be 3.02 nM; at hNav1.7 [2], 2.31 nM.

Regarding `CN(C)[C@H]1C[C@@H](c2cccc(F)c2)CC[C@@H]1Nc1cc(F)c(S(=O)(=O)Nc2ccncn2)cc1Cl` [Example 26, 5-Chloro-4-(((1S,2S,4S)-2-(dimethylamino)-4-(3-fluorophenyl)cyclohexyl)amino)-2-fluoro-N-(pyrimidin-4-yl)benzenesulfonamide formate], the IC50 is 11.8 nM on hNav1.7 [1] and 2.97 nM at hNav1.7 [2].

With `CN(C)[C@H]1C[C@@H](c2cccc(CC(F)(F)F)c2)CC[C@@H]1Nc1cc(F)c(S(=O)(=O)Nc2ccncn2)cc1Cl` [Example 27, 5-chloro-4-(((1S,2S,4S)-2-(dimethylamino)-4-(3-(2,2,2-trifluoroethyl)phenyl)cyclohexyl)-amino)-2-fluoro-N-(pyrimidin-4-yl)benzenesulfonamide], the IC50 on hNav1.7 [1] was found to be 1.22 nM; on hNav1.7 [2], 1.33 nM.

In the case of `CN(C)CC(=O)N[C@H]1C[C@@H](c2cccc(C(F)(F)F)c2)CC[C@@H]1Nc1cc(F)c(S(=O)(=O)Nc2ccncn2)cc1Cl` [Example 28, N-((1S,2S,5S)-2-((2-chloro-5-fluoro-4-(N-(pyrimidin-4-yl)sulfamoyl)phenyl)amino)-5-(3-(trifluoromethyl)phenyl)cyclohexyl)-2-(dimethylamino)acetamide], the IC50 worked out at 84 nM on hNav1.7 [1] and 36.3 nM at hNav1.7 [2].

On to `CN(C)CC(=O)N(C)[C@H]1C[C@@H](c2cccc(C(F)(F)F)c2)CC[C@@H]1Nc1cc(F)c(S(=O)(=O)Nc2ccncn2)cc1Cl` [Example 29, N-((1S,2S,5S)-2-((2-chloro-5-fluoro-4-(N-(pyrimidin-4-yl)sulfamoyl)phenyl)amino)-5-(3-(trifluoromethyl)phenyl)cyclohexyl)-2-(dimethylamino)-N-methylacetamide formate], for which the IC50 turned out to be 3.56 nM on hNav1.7 [1] and 2.25 nM at hNav1.7 [2].
